Reference: patent US20090105562A1, “SYSTEM AND METHODS FOR SCREENING OR ANALYZING TARGETS” (TAIPEI VETERANS GENERAL HOSPITAL, priority 2007, published 2009)

What was measured:
Format in all cases: cell-based, rat
NSCs = test: 5-HT in culture medium of NSCs by microdialysis with HPLC-ECD; settings: p<0.05
Experimental: A microdialysis sampling system connected to the Petri dish was constructed in our laboratory according to the design originally described by Cheng et al., J. Chromatogr. A. 870, 405-411, 2000. The dialysis probe was made of a dialysis membrane 30 mm in length, with an outer diameter of 150 μm, and a nominal molecular weight cut-off of 13000. Ringer solution ([…]) was perfused through the probe at a flow-rate of 2 μl/min. Microdialysate samples were collected every 10 minutes. An HPLC-ED system (HTEC-500; Eicom, Kyoto, Japan) consisting of a three-electrode cell with an Ag/AgCl electrode as the reference electrode, a counter electrode and a graphite electrode as the working electrode was used to measure determine the levels of serotonin (5-HT). […] The column used for separation at room temperature (25° C.) was a PP-ODS (4.6×30 mm) (Eicom, Kyoto, Japan). The mobile phase, containing 0.1 M sodium phosphate buffer (0.1 M NaH2PO4: 0.1 M Na2HPO4=1000:160, v/v), 1% methanol, 500 mg/l sodium secanesulfonate and 50 mg/l EDTA, was adjusted to pH 6.0 with 5 M of NaOH with a flow rate of 0.5 ml/min. A volume of 10 μl of each microdialysate was injected manually into the chromatographic system and assayed on the same sampling day.

LPS-treated NSCs = test: ELISA of IL-1β, IL-6 and TNF-α in LPS-treated NSCs
Experimental: IM was purchased from Sigma Chem. Co., St Louis, Mo., USA. NSCs were seeded on 24-well plates at a density of 2×10^4 cells/well in medium, followed by methyl thiazol tetrazolium assay (MTT assay) (Sigma-Aldrich Co., St Louis, Mo., USA) for cell viability. NSCs were incubated with 0.25 mg/ml MTT for 4 hours at 37° C. and the reaction was terminated by the addition of 100% isopropanol. The amount of MTT fromazon product was determined using a microplate reader and the absorbance was measured at 560 nm (SpectraMax 250, Molecular Devices, Sunnyvale, Calif., USA). NSCs were exposed to 0, 1, 2, 5, 10, 20, 30, 40, 50, 100, 200, and 300 μM of IM for 1, 3, 5, and 7 days, respectively. The activities of caspases 8 and 3 (Medical and Biological Laboratories Co., Ltd., Nagoya, Japan), and the concentration of IL-6, IL-1 and TNF-α (Pharmingen, San Diego, Calif., USA) were determined by ELISA kits and quantified by reading at 490 nm (MRX; Dynatech Laboratories, Chantilly, Va., USA). Each individual sample was analyzed in triplicate.
(§1) Double-stranded, short interfering RNA (siRNA) of BDNF and Bcl-2 were chemically synthesized by Ambion Inc., Austin, Tex., USA). The sense and antisense sequences of BDNF were designed as follows: Sense: […]tt; Antisense: AGCTTAAAAAGAG CTGtt, starting from nucleotide 137 of the Bcl-2 sequence (accession number L14680). The sense and antisense sequences of Bcl-2 were designed as follows: Sense: GCGCUGGAUAUAACUUCUUtt; Antisense: AAGAAGUUAUAUC CAGCGCtt, starting from nucleotide 137 of the Bcl-2 sequence (accession number L14680). In this test, the siRNA control used was siRNA-Cy3 (QIAGEN; sense sequence: UUCUCCGAACGUGU CACGUdTdT-3′-Cy3 and the complement 5′-ACGUGACACGUUCGGAGAAdTdT-3′-Cy3) as an irrelevant control. The transfection of siRNA was performed using Lipofectamine 2000 (Invitrogen, Carlsbad, Calif., USA) according to the manufacturer's instructions. In brief, cells were harvested with 0.25% trypsin, 1 mM ethylenediaminetetraacetic acid (EDTA) in phosphate buffered saline (PBS) without Ca^2+ and Mg^2+, and plated in six-well plates at 10^5 per cm^2. Then 3.5 μl siRNA (100 μM solution) was mixed with 125 μl serum-free culture medium for 5 minutes at room temperature. During this incubation period, 5 μl of Lipofectamine 2000 was diluted in 125 μl serum-free culture medium. These two mixtures were combined, mixed gently, and incubated for 20 minutes at room temperature for complex formation. This 250 μl of siRNA-Lipofectamine mixture was then added into the cells in a final volume of 2.5 ml per well. The transfected cells were cultured and fed daily with fresh medium until they were assayed.

Bcl-2 = Bcl-2 protein expression in NSCs by western blot and immunocytochemistry
Experimental: After the treatment with IM, the cell lysates of the NSCs were collected and the concentration of protein was determined by using the Protein Assay kit (Bio-Rad, Hercules, Calif., USA). Cell extracts with sample buffer were boiled for 5 minutes and then separated by 10% SDS-PAGE gel. After electrophoresis, the gel was transferred onto a PVDF membrane for immunoblotting. The membrane was first blocked by incubation in non-fat milk at room temperature for 2 hours, then incubated with anti-Bcl-2 antibody (Upstate Biotechnology Inc, Waltham, Mass., USA), and anti-β actin (Chemicon International Inc, Temecula, Calif., USA) for 2 hours at room temperature, washed five times with Tris-Buffered Saline Tween-20 (TBST), and then incubated further at room temperature with horseradish peroxidase-conjugated secondary antibody for 2 hours. Then the membrane was washed six times with TBST and specific bands were made visible by chemiluminescence (Santa Cruz Biotechnology, Santa Cruz, Calif., USA).
as §1
An avidin-biotin complex method was used for the immunohistochemical staining in the differentiated NSCs. Following washes with the 3% hydrogen peroxide, sodium azide and antigens were retrieved using a microwave. Each slide was then treated with antibodies for Bcl-2 (Upstate Biotechnology, Waltham, Mass., USA), Nestin (Chemicon, Temecula, Calif., USA), 4′, 6-diamidino-2-phenylindole (DAPI; Chemicon, Temecula, Calif., USA) and MAP2 (Chemicon, Temecula, Calif., USA). Immunoreactive signals were detected with a mixture of biotinylated rabbit anti-mouse IgG and Fluoresave (Calbiochem, La Jolla, Calif., USA) under confocal microscopy (Olympus, FV300). Each individual sample was analyzed in triplicate. Furthermore, apoptotic cells were identified by the TUNEL method (In Situ Cell Death Detection Kit, POD, Roche Boehringer Mannheim Corp., IN, USA) as described in Chiou et al., J. Immunol. 167, 4098-4103, 2001. Briefly, the cells with cover slips were washed with 1× phosphate buffered saline (PBS), fixed with 4% of paraformaldehyde for 10 minutes, permeabilized with 0.1% of triton X-100 for 5 mins, and incubated with the TUNEL reagent provided for 1 hour. Chromogenic development was then applied with 3-amino-9-ethyl-carbazole, and slides were counterstained with H & E stain. […]

[1] = vs only LPS-treated NSCs, IM 3 μM, p<0.05
[2] = agent added to LPS-treated NSCs with IM, U0126 40 μM

| SMILES | 5-HT level in culture medium (NSCs; Day 7 and Day 14, IM-treated vs without IM-treatment NSCs) | IL-1β production in LPS-treated NSCs (LPS-treated NSCs; [1]) | IL-6 production in LPS-treated NSCs (LPS-treated NSCs; [1]) | TNF-α production in LPS-treated NSCs (LPS-treated NSCs; [1]) | protein expression level of Bcl-2 in LPS-treated NSCs (Bcl-2; 3 μM IM vs 1, 2 μM IM-LPS-treated, only LPS-treated and control groups) | protein level of Bcl-2 (western blot) (Bcl-2; Day 3 IM-treated vs Day 3 non-IM-treated NSCs, p<0.05) | protein expression of Bcl-2 (immunohistochemistry) (Bcl-2; Day 7 IM-treated NSCs vs NSCs without IM treatment) | expression level of Bcl-2 protein (western blot) (Bcl-2; Day 7 IM-treated vs Day 3 or Day 5 IM-treated NSCs, p<0.05) | Bcl-2 expression in NSCs (Bcl-2; treatment with either agent alone) | production of 5-HT of IM-treated NSCs (NSCs; agent added, Day 7 and Day 14) | level of IL-1β in LPS-treated NSCs with IM (LPS-treated NSCs; [2]) | level of IL-6 in LPS-treated NSCs with IM (LPS-treated NSCs; [2]) | level of TNF-α in LPS-treated NSCs with IM (LPS-treated NSCs; [2]) | Bcl-2 expression induced by IM in NSCs (Bcl-2; agent added to IM-treated NSCs) |
| --- | --- | --- | --- | --- | --- | --- | --- | --- | --- | --- | --- | --- | --- | --- |
| CN(C)CCCN1c2ccccc2CCc2ccccc21 [IM, imipramine] | significantly higher | effectively reduces | effectively reduces | effectively reduces | significantly increased | higher | significantly increased | significantly increased | activate | – | – | – | – | – |
| N#CC(=C(/N)Sc1ccccc1N)/C(C#N)=C(\N)Sc1ccccc1N [U0126] | – | – | – | – | – | – | – | – | – | significantly diminished | significantly increased | significantly increased | significantly increased | effectively blocked |
